The source made the active and inactive calls. No cut-off for these calls is given here.
Columns and labels:
Mytilus edulis [1] = assay: Antifouling activity in Mytilus edulis galloprovincialis assessed as foot contraction at 100 ppm; format: functional
Mytilus edulis [2] = assay: Antifouling activity in Mytilus edulis galloprovincialis assessed as foot contraction at <10 ppm; format: functional, organism-based

Compound: C=C1[C@@H](C)C[C@H]2C[C@]1(C)CCC1=CC(=O)O[C@@]12O
- Activity (Mytilus edulis [1]): 100%
- Activity (Mytilus edulis [2]): inactive

From ChEMBL document CHEMBL1157278, “A new sesquiterpene as an antifouling substance from a palauan marine sponge, dysidea herbacea” (1999)
